In patent US11827628B2, “Compositions and methods for inhibition of the JAK pathway” (Rigel Pharmaceuticals, Inc., priority 2005, dated 2023):

Each molecule was assayed on IL-4 stimulated expression of CD23 in human Ramos B cells (JAK-1 and JAK-3) (assay: Assay for Ramos B-Cell Line Stimulated with IL-4 (CD23 upregulation, FACS)). Conditions: Homo sapiens, Ramos, Ramos B cells stimulated with IL-4, CD23 expression by FACS; read-out: IC50, Example 41.
Type: cell-based
Outline: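 Read-out is surface CD23 by FACS after anti-CD23-PE staining, giving IC50. Before this, cells were stimulated 20-24 h with 50 units/mL (final) human IL-4, following 1 h compound or vehicle pre-treatment at 37 °C; log-phase Ramos B cells, 5×10^4 per well in 5% serum RPMI.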

In order of rising IC50:
1. C#CCn1ccc2ccc(Nc3nc(Nc4cccc(S(N)(=O)=O)c4)ncc3F)cc21 [IX-4, N2-(3-Aminosulfonylphenyl)-5-fluoro-N4-[1-(propyn-3-yl)indol-6-yl]-2,4-pyrimidinediamine]  120 nM
2. CNS(=O)(=O)c1ccc(Nc2ncc(F)c(Nc3ccc(OC)c(OC)c3)n2)cc1OC [IX-50, N4-(3,4-Dimethoxyphenyl)-5-fluoro-N2-[4-(N-methyl)aminosulfonyl-3-methoxyphenyl]-2,4-pyrimidinediamine]  179 nM
3. CNS(=O)(=O)c1ccc(Nc2ncc(F)c(Nc3ccc(OC(F)(F)F)c(Cl)c3)n2)cc1OC [IX-53, N4-(3-Chloro-4-trifluoromethoxyphenyl)-5-fluoro-N2-[4-(N-methyl)aminosulfonyl-3-methoxyphenyl]-2,4-pyrimidinediamine]  240 nM
4. CCCN(c1ccc(OC)c(Cl)c1)c1nc(Nc2ccc(C)c(S(N)(=O)=O)c2)ncc1F [VI-22, N2-(3-Aminosulfonyl-4-methylphenyl)-N4-(3-chloro-4-methoxyphenyl)-5-fluoro-N4-propyl-2,4-pyrimidinediamine]  663 nM
5. COc1ccc(N(C)c2nc(Nc3cc(C)c(F)c(S(N)(=O)=O)c3)ncc2F)cc1Cl [VI-20, N2-(3-Aminosulfonyl-4-fluoro-5-methylphenyl)-N4-(3-chloro-4-methoxyphenyl)-5-fluoro-N4-methyl-2,4-pyrimidinediamine]  726 nM
6. Cc1ccc(Nc2ncc(F)c(Nc3ccc(C(=O)N4CCS(=O)(=O)CC4)cc3)n2)cc1S(N)(=O)=O [IX-38, N2-(3-Aminosulfonyl-4-methylphenyl)-N4-[4-(1,1-dioxo-4-thiomorpholinyl)carbonylphenyl]-5-fluoro-2,4-pyrimidinediamine]  2310 nM
7. Cc1ccc2cccc(Nc3nc(Nc4cccc(S(N)(=O)=O)c4)ncc3F)c2n1 [VII-81, N2-(3-Aminosulfonylphenyl)-5-fluoro-N4-(2-methylquinolin-8-yl)-2,4-pyrimidinediamine]  3070 nM
8. Cc1ccc(Nc2ncc(F)c(Nc3ccc4nc(O)cc(C)c4c3)n2)cc1S(N)(=O)=O [VII-73, N2-(3-Aminosulfonyl-4-methylphenyl)-5-fluoro-N4-(2-hydroxy-4-methylquinolin-6-yl)-2,4-pyrimidinediamine]  6090 nM

Same assay, conditions: Homo sapiens, Ramos, Ramos B-cell line stimulated with IL-4; CD23 expression by FACS; read-out: IC50, Example 41

In order of falling IC50:
1. CCC(=O)NS(=O)(=O)c1cc(Nc2ncc(F)c(Nc3ccc(OCC(=O)OC)cc3)n2)ccc1C [Compound I-213, 5-Fluoro-N4-(4-methoxycarbonylmethoxyphenyl)-N2-(4-methyl-3-propionylaminosulfonylphenyl)-2,4-pyrimidinediamine]  11500 nM
2. Cc1ccc(Nc2ncc(F)c(Nc3ccc(OCC(N)=O)c(CO)c3)n2)cc1S(N)(=O)=O [Compound I-106, N4-(4-Aminocarbonylmethoxy-3-hydroxymethylphenyl)-N2-(3-aminosulfonyl-4-methylphenyl)-5-fluoro-2,4-pyrimidinediamine]  2950 nM
3. C=CC(=O)NCc1ccc(Nc2nc(Nc3ccc(S(N)(=O)=O)cc3)ncc2F)cc1 [III-44, N4-(4-Acrylamidomethylphenyl)-N2-(4-aminosulfonylphenyl)-5-fluoro-2,4-pyrimidinediamine]  1430 nM
4. CCC(=O)NS(=O)(=O)c1cc(Nc2ncc(F)c(Nc3ccc(OCC#N)c(F)c3)n2)ccc1C [Compound I-48, N4-(4-Cyanomethoxy-3-fluorophenyl)-5-fluoro-N2-(4-methyl-3-propionylaminosulfonylphenyl)-2,4-pyrimidinediamine]  1400 nM
5. COc1cc(Nc2nc(Nc3ccc(C)c(S(N)(=O)=O)c3)ncc2F)cc(OCC#N)c1OC [Compound I-2, N2-(3-Aminosulphonyl-4-methylphenyl)-N4-(3-cyanomethoxy-4,5-dimethoxyphenyl)-5-fluoro-2,4-pyrimidinediamine]  532 nM
6. NC(=O)COc1ccc(Nc2nc(Nc3ccc(S(N)(=O)=O)cc3)ncc2F)cc1F [Compound I-100, N4-(4-Aminocarbonylmethoxy-3-fluorophenyl)-N2-(4-aminosulfonylphenyl)-5-fluoro-2,4-pyrimidinediamine]  380 nM

Same assay, conditions: Ramos B cells stimulated with IL-4, CD23 expression by FACS; read-out: IC50, Example 41

In order of falling IC50:
1. Cc1ccc(Nc2ncc(F)c(Nc3ccc4sc(CCC#N)cc4c3)n2)cc1S(N)(=O)=O [Compound V-16, N2-(3-Aminosulfonyl-4-methylphenyl)-N4-(2-cyanoethylene-benzothiophen-5-yl)-5-fluoro-2,4-pyrimidinediamine]  8370 nM
2. CNS(=O)(=O)c1cc(Nc2ncc(F)c(Nc3ccc(C(=O)N4CCN(C(C)=O)CC4)cc3)n2)ccc1C [IX-25, N4-[4-(1-Acetyl-4-piperizinyl)carbonylphenyl]-5-fluoro-N2-[3-(N-methylaminosulfony)-4-methylphenyl]-2,4-pyrimidinediamine]  6310 nM
3. Cc1ccc(Nc2ncc(F)c(Nc3cccc(CNC(N)=O)c3)n2)cc1S(N)(=O)=O [III-115, N4-(3-aminocarbonylaminomethyl)phenyl-N2-(3-aminosulfonyl-4-methyl)phenyl-5-fluoro-2,4-pyrimidinediamine]  1650 nM
4. CNS(=O)(=O)c1cc(Nc2ncc(F)c(Nc3ccc(C(=O)N4CCS(=O)(=O)CC4)cc3)n2)ccc1C [IX-39, N4-[4-(1,1-dioxo-4-thiomorpholinyl)carbonylphenyl]-5-Fluoro-N2-[3-(N-methylaminosulfony)-4-methylphenyl]-2,4-pyrimidinediamine]  1400 nM
5. CNS(=O)(=O)c1cc(Nc2ncc(F)c(Nc3ccc(C(=O)N4CCN(S(C)(=O)=O)CC4)cc3)n2)ccc1C [IX-31, 5-Fluoro-N2-[3-(N-methylaminosulfony)-4-methylphenyl]-5-fluoro-N4-[4-(1-methanesulfonyl-4-piperizinyl)carbonylphenyl]-2,4-pyrimidinediamine]  1400 nM
6. COc1ccc(Nc2ncc(F)c(Nc3ccc(CN4CCOCC4)cc3)n2)cc1S(N)(=O)=O [III-105, N2-(3-Aminosulfonyl-4-methyleneoxyphenyl)-5-fluoro-N4-(4-N-morpholinomethylenephenyl)-2,4-pyrimidinediamine]  1280 nM
7. Cc1ccc(Nc2ncc(F)c(Nc3ccc4c(c3)N(Cc3ccccn3)C(=O)CO4)n2)cc1S(N)(=O)=O [Compound V-2, N2-(3-Aminosulphonyl-4-methylphenyl)-5-fluoro-N4-[3-oxo-4-(2-pyridylmethy)-benz[1,4]oxazin-6-yl]-2,4-pyrimidinediamine]  1180 nM
8. COc1ccc(Nc2nc(Nc3cccc(S(N)(=O)=O)c3)ncc2C#C[Si](C)(C)C)cc1Cl [VI-28, N2-(3-Aminosulfonylphenyl)-N4-(3-chloro-4-methoxyphenyl)-5-trimethylsilylacetylene-2,4-pyrimidinediamine]  754 nM
9. CCNC(=O)NCc1cccc(Nc2nc(Nc3cccc(S(N)(=O)=O)c3)ncc2F)c1 [III-117, N2-(3-aminosulfonyl)phenyl-N4-(3-ethylaminocarbonylaminomethyl)phenyl-5-fluoro-2,4-pyrimidinediamine]  397 nM
10. CNS(=O)(=O)c1ccc(Nc2ncc(F)c(Nc3ccc4c(c3)OCCO4)n2)cc1OC [VII-25, N4-(3,4-Ethyenedioxyphenyl)-5-fluoro-N2-[4-(N-methyl)aminosulfonyl-3-methoxyphenyl]-2,4-pyrimidinediamine]  217 nM

Same assay, conditions: Ramos B-cell line stimulated with IL-4; CD23 expression by FACS; read-out: IC50, Example 41

In order of falling IC50:
1. CCN(CC)CCNS(=O)(=O)c1ccc(Nc2ncc(F)c(Nc3ccc(Cc4ccncc4)cc3)n2)cc1 [III-72, N2-[4-(2-N,N-Diethylaminoethyl)aminosulfonylphenyl)-5-fluoro-N4-[4-(4-pyridinylmethyl)phenyl]-2,4-pyrimidinediamine]  1950 nM
2. COC(=O)CN(c1ccc(OCc2cc(C)on2)cc1)c1nc(Nc2ccc(C)c(S(N)(=O)=O)c2)ncc1F [Compound I-227, N2-(3-Aminosulfonyl-4-methylphenyl)-5-fluoro-N4-methoxycarbonylmethyl-N4-[4-(5-methylisoxazol-3-yl)methyleneoxyphenyl]-2,4-pyrimidinediamine]  1480 nM
3. CC(=O)NS(=O)(=O)c1cccc(Nc2ncc(F)c(Nc3ccc(OCc4cc(C)on4)cc3)n2)c1 [Compound I-232, N2-(3-Acetamidosulfonylphenyl)-5-fluoro-N4-[4-(5-methylisoxazol-3-yl)methyleneoxyphenyl]-2,4-pyrimidinediamine]  1430 nM
4. NC(=O)COc1cccc(Nc2nc(Nc3cccc(S(N)(=O)=O)c3)ncc2F)c1 [Compound I-88, N4-(3-Aminocarbonylmethoxy)phenyl-N2-(3-aminosulfonyl)phenyl-5-fluoro-2,4-pyrimidinediamine]  1080 nM
5. CCN(CC)CCNS(=O)(=O)c1cccc(Nc2ncc(F)c(Nc3ccc(OCc4ccccn4)cc3)n2)c1 [Compound I-166, N2-[3-(2-N,N-Diethylaminoethyl)aminosulfonylphenyl)-5-fluoro-N4-[4-(2-pyridinyl)methyleneoxyphenyl]-2,4-pyrimidinediamine]  616 nM
6. CC(C)(Oc1ccc(Nc2nc(Nc3ccc(S(N)(=O)=O)cc3)ncc2F)cc1)C(N)=O [Compound I-125, N4-[4-(1-Aminocarbonyl-1-methyl)ethoxy]phenyl-N2-(4-aminosulfonyl)phenyl-5-fluoro-2,4-pyrimidinediamine]  538 nM
7. Cc1cc(CCC#N)ccc1Nc1nc(Nc2ccc(C)c(S(N)(=O)=O)c2)ncc1F [III-23, N2-(3-Aminosulfonyl-4-methylphenyl)-N4-(4-cyanoethylene-2-methylphenyl)-5-fluoro-2,4-pyrimidinediamine]  397 nM
8. CNS(=O)(=O)c1cc(Nc2ncc(F)c(Nc3ccc(Oc4cccnc4)cc3)n2)ccc1C [II-13, 5-Fluoro-N2-[3-N-(methylaminosulfonyl)-4-methylphenyl]-N4-[4-(3-pyridyloxy)phenyl]-2,4-pyrimidinediamine]  323 nM
